Measured values: PMC11704008 (Scientific Reports, 2025)
Values after ≈ are worked out from the molar mass of the structure shown. Read-outs that look alike come from different tables or passages of the source.

What was measured:
[1] = format: physicochemical
[2] = format: physicochemical; remark: listed apart in the source

C[C@](N)(Cc1ccc(O)c(O)c1)C(=O)O [methyldopa, Methyldopa]
solvation heat (ΔHsol) ([1]; difference between ΔHvap and ΔHtotal): -5.382 kcal/mol
total heat (∆Htotal), Chrastil model ([1]; methyldopa in ScCO2): 8.21 kcal/mol
vaporization heat (∆Hvap), Bartle et al. model ([1]; methyldopa in ScCO2): 13.59 kcal/mol
y × 10^5 (mole fraction in ScCO2) ([2]; 313 K, 12 MPa, CO2 density 719.2 kg.m^−3): 2.481
y × 10^5 (mole fraction in ScCO2) ([2]; 313 K, 15 MPa, CO2 density 781.2 kg.m^−3): 3.013
y × 10^5 (mole fraction in ScCO2) ([2]; 313 K, 18 MPa, CO2 density 820.7 kg.m^−3): 3.942
y × 10^5 (mole fraction in ScCO2) ([2]; 313 K, 21 MPa, CO2 density 850.4 kg.m^−3): 4.531
y × 10^5 (mole fraction in ScCO2) ([2]; 313 K, 24 MPa, CO2 density 873.9 kg.m^−3): 5.520
y × 10^5 (mole fraction in ScCO2) ([2]; 313 K, 27 MPa, CO2 density 893.5 kg.m^−3): 6.320
y × 10^5 (mole fraction in ScCO2) ([2]; 313 K, 30 MPa, CO2 density 910.3 kg.m^−3): 7.652
y × 10^5 (mole fraction in ScCO2) ([2]; 323 K, 12 MPa, CO2 density 587.2 kg.m^−3): 1.880
y × 10^5 (mole fraction in ScCO2) ([2]; 323 K, 15 MPa, CO2 density 701.1 kg.m^−3): 3.390
y × 10^5 (mole fraction in ScCO2) ([2]; 323 K, 18 MPa, CO2 density 758.8 kg.m^−3): 4.490
y × 10^5 (mole fraction in ScCO2) ([2]; 323 K, 21 MPa, CO2 density 797.4 kg.m^−3): 5.910
y × 10^5 (mole fraction in ScCO2) ([2]; 323 K, 24 MPa, CO2 density 826.1 kg.m^−3): 7.114
y × 10^5 (mole fraction in ScCO2) ([2]; 323 K, 27 MPa, CO2 density 851.7 kg.m^−3): 7.790
y × 10^5 (mole fraction in ScCO2) ([2]; 323 K, 30 MPa, CO2 density 871.5 kg.m^−3): 8.832
y × 10^5 (mole fraction in ScCO2) ([2]; 333 K, 12 MPa, CO2 density 435.3 kg.m^−3): 1.520
y × 10^5 (mole fraction in ScCO2) ([2]; 333 K, 15 MPa, CO2 density 606.8 kg.m^−3): 2.841
y × 10^5 (mole fraction in ScCO2) ([2]; 333 K, 18 MPa, CO2 density 688.4 kg.m^−3): 5.090
y × 10^5 (mole fraction in ScCO2) ([2]; 333 K, 21 MPa, CO2 density 740.3 kg.m^−3): 7.050
y × 10^5 (mole fraction in ScCO2) ([2]; 333 K, 24 MPa, CO2 density 777.5 kg.m^−3): 8.125
y × 10^5 (mole fraction in ScCO2) ([2]; 333 K, 27 MPa, CO2 density 806.7 kg.m^−3): 9.163
y × 10^5 (mole fraction in ScCO2) ([2]; 333 K, 30 MPa, CO2 density 830.5 kg.m^−3): 9.960
y × 10^5 (mole fraction in ScCO2) ([2]; 343 K, 12 MPa, CO2 density 346.1 kg.m^−3): 0.805
y × 10^5 (mole fraction in ScCO2) ([2]; 343 K, 15 MPa, CO2 density 507.5 kg.m^−3): 2.043
y × 10^5 (mole fraction in ScCO2) ([2]; 343 K, 18 MPa, CO2 density 613.5 kg.m^−3): 5.410
y × 10^5 (mole fraction in ScCO2) ([2]; 343 K, 21 MPa, CO2 density 678.9 kg.m^−3): 7.484
y × 10^5 (mole fraction in ScCO2) ([2]; 343 K, 24 MPa, CO2 density 724.9 kg.m^−3): 8.632
y × 10^5 (mole fraction in ScCO2) ([2]; 343 K, 27 MPa, CO2 density 760.3 kg.m^−3): 10.061
y × 10^5 (mole fraction in ScCO2) ([2]; 343 K, 30 MPa, CO2 density 788.9 kg.m^−3): 11.345
solubility at 5 h ([2]; solubility S in ScCO2, range over all conditions, 12–30 MPa, 313–343 K): 13.4 to 428 µg/mL (≈ 63.4 to 2030 µM)
